Results: article PMC10946398 (Journal of Medicinal Chemistry, 2024)
Values joined by “and” are separate entries in the source; they are usually repeats but may differ in a detail not shown here. Equal entries are not always repeated.

Experiment: parallel artificial membrane permeability assay
Assay type: in vitro ADME
Conditions: 100 μM, phosphate buffer pH 6.4, 17 h, 37 °C, 150 rpm, triplicates

Row | SMILES | PAMPA −LogPe
1 | CC(C)C[C@@H]1NC(=O)CN(C)C(=O)[C@H](Cc2ccccc2)NCc2ccc([nH]2)CNC1=O [14b, (5S,11S)-11-Benzyl-5-isobutyl-9-methyl-1^1H-3,6,9,12-tetraaza-1(2,5)-pyrrolacyclotridecaphane-4,7,10-trione] | 5.89 and 5.89 ± 0.08
2 | CC(C)C[C@@H]1NC(=O)CN(C)C(=O)[C@H](Cc2ccccc2)NCc2ccc(n2C)CNC1=O [15b, (5S,11S)-11-Benzyl-5-isobutyl-1^1,9-dimethyl-1^1H-3,6,9,12-tetraaza-1(2,5)-pyrrolacyclotridecaphane-4,7,10-trione] | 5.93
3 | CC(C)C[C@@H]1NC(=O)CN(C)C(=O)[C@H](Cc2ccccc2)NCC2=CC=C(CNC1=O)O2 [18b, (5S,11S)-11-Benzyl-5-isobutyl-9-methyl-3,6,9,12-tetraaza-1(2,5)-furanacyclotridecaphane-4,7,10-trione] | 5.88 and 5.88 ± 0.04
4 | CC(C)C[C@@H]1NC(=O)[C@H](C)N(C)C(=O)[C@H](Cc2ccccc2)NCc2ccc(n2C)CNC1=O [15d, (5S,8S,11S)-11-Benzyl-5-isobutyl-1^1,8,9-trimethyl-1^1H-3,6,9,12-tetraaza-1(2,5)-pyrrolacyclotridecaphane-4,7,10-trione] | 6.30
5 | CC(C)C[C@@H]1NC(=O)[C@H](C)N(C)C(=O)[C@H](Cc2ccccc2)NCc2cc(c[nH]2)CNC1=O [16d, (5S,8S,11S,Z)-11-Benzyl-5-isobutyl-8,9-dimethyl-1^1H-3,6,9,12-tetraaza-1(2,4)-pyrrolacyclotridecaphane-4,7,10-trione] | 7.53
6 | CC(C)C[C@@H]1NC(=O)[C@H](C)NC(=O)[C@H](Cc2ccccc2)NCC2=CC=C(CN(C)C1=O)O2 [19a, (5S,8S,11S)-11-Benzyl-5-isobutyl-3,8-dimethyl-3,6,9,12-tetraaza-1(2,5)-furanacyclotridecaphane-4,7,10-trione] | 5.71 and 5.71 ± 0.03
7 | CC(C)C[C@@H]1NC(=O)[C@H](C)N(C)C(=O)[C@H](Cc2ccccc2)NCc2cc(cn2C)CNC1=O [17d, (5S,8S,11S,Z)-11-Benzyl-5-isobutyl-1^1,8,9-trimethyl-1^1H-3,6,9,12-tetraaza-1(2,4)-pyrrolacyclotridecaphane-4,7,10-trione] | 6.61 ± 0.07
8 | CC(C)C[C@@H]1NC(=O)[C@H](C)NC(=O)[C@H](Cc2ccccc2)N(C)Cc2ccc([nH]2)CNC1=O [14e, (5S,8S,11S)-11-Benzyl-5-isobutyl-8,12-dimethyl-1^1H-3,6,9,12-tetraaza-1(2,5)-pyrrolacyclotridecaphane-4,7,10-trione, 1H-Benzo[d][1,2,3]triazol-1-ol] | 5.11
9 | CC(C)C[C@@H]1NC(=O)CN(C)C(=O)[C@H](Cc2ccccc2)NCc2cc(c[nH]2)CNC1=O [16b, (5S,11S,Z)-11-Benzyl-5-isobutyl-9-dimethyl-1^1H-3,6,9,12-tetraaza-1(2,4)-pyrrolacyclotridecaphane-4,7,10-trione] | 6.76
10 | CC(C)C[C@@H]1NC(=O)[C@H](C)NC(=O)[C@H](Cc2ccccc2)NCc2ccc([nH]2)CNC1=O [14a, (5S,8S,11S)-11-Benzyl-5-isobutyl-8-methyl-1^1H-3,6,9,12-tetraaza-1(2,5)-pyrrolacyclotridecaphane-4,7,10-trione, 1H-Benzo[d][1,2,3]triazol-1-ol] | 7.72
11 | CC(C)C[C@@H]1NC(=O)[C@H](C)N(C)C(=O)[C@H](Cc2ccccc2)NCc2ccc([nH]2)CNC1=O [14d, (5S,8S,11S)-11-Benzyl-5-isobutyl-8,9-dimethyl-1^1H-3,6,9,12-tetraaza-1(2,5)-pyrrolacyclotridecaphane-4,7,10-trione] | 5.01
12 | CC(C)C[C@H]1C(=O)NCc2ccc([nH]2)CN[C@@H](Cc2ccccc2)C(=O)N[C@@H](C)C(=O)N1C [14c, (5S,8S,11S)-11-Benzyl-5-isobutyl-6,8-dimethyl-1^1H-3,6,9,12-tetraaza-1(2,5)-pyrrolacyclotridecaphane-4,7,10-trione, 1H-Benzo[d][1,2,3]triazol-1-ol] | 5.12
